The values that follow come from publication PMC7190078 (Journal of medicinal chemistry, 2019).

The inhibition is the share of the control response that was lost under treatment. The term IC50 denotes the concentration that inhibits the measured activity by half. In general, fraction unbound refers to free concentration divided by total concentration. Usually Papp A→B stands for how fast a substance crosses the layer from the apical side. A low value points to poor permeation. Broadly, the efflux ratio is a quotient of directional permeabilities that is used to spot active efflux.

One series concerns the target HDAC3 (Homo sapiens, UniProt O15379). Nature of the series: HDAC inhibition, electrophoretic mobility shift assay. It counts as biochemical. The note with it: EMSA, n = 2. On the technique in general: A gel shift assay detects complexes by their altered migration in electrophoresis.
The target in the next series is T1, HDAC6 (Homo sapiens, UniProt Q9UBN7).
T1 sequence (Q9UBN7 1-1215): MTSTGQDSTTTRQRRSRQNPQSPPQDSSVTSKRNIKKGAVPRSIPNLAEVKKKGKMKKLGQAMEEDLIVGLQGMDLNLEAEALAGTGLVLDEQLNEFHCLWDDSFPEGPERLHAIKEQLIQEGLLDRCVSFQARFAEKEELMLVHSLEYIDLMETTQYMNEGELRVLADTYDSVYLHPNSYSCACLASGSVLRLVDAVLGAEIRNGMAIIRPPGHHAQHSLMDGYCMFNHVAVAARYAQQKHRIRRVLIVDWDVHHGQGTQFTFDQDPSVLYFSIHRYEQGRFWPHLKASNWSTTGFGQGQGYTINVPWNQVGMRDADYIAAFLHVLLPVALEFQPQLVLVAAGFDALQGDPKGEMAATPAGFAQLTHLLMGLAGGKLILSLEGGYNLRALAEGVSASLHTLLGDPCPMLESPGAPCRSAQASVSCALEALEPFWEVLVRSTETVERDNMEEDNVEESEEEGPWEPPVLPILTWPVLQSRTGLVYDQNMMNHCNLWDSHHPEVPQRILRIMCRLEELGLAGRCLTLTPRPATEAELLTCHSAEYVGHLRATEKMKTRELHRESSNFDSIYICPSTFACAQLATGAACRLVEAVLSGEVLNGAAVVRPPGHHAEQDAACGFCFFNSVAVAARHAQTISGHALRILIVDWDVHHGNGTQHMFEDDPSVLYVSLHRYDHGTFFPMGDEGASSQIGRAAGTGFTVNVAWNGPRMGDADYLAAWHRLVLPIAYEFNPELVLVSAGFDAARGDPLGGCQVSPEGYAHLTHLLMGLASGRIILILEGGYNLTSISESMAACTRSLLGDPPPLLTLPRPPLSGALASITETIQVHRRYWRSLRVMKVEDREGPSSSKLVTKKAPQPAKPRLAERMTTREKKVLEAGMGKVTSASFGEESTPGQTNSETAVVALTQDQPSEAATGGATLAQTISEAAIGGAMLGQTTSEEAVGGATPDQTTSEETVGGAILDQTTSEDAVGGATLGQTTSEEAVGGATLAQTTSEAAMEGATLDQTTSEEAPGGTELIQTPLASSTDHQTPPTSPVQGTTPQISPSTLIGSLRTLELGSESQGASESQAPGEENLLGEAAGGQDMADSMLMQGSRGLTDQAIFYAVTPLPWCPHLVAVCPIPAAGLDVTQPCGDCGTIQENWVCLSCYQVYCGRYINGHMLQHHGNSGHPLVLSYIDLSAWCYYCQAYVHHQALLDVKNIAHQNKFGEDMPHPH
The description is as above. Particulars: EMSA, n = 2. It counts as biochemical.

In a further series the target is T2, HDAC8 (Homo sapiens, UniProt Q9BY41).
T2 sequence (Q9BY41 1-377): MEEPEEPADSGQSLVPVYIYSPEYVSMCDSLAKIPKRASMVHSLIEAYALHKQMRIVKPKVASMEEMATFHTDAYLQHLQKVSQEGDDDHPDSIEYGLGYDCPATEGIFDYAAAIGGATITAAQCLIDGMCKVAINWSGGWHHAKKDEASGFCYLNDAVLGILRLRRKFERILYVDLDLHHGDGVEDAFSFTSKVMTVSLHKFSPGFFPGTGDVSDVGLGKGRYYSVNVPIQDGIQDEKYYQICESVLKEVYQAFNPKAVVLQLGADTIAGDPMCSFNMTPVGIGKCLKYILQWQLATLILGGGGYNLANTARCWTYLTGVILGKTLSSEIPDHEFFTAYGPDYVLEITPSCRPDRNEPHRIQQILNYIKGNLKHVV
The series is described as above. It counts as biochemical.

The target of the next series is T3, HDAC11 (Homo sapiens, UniProt Q96DB2).
T3 sequence (Q96DB2 1-347): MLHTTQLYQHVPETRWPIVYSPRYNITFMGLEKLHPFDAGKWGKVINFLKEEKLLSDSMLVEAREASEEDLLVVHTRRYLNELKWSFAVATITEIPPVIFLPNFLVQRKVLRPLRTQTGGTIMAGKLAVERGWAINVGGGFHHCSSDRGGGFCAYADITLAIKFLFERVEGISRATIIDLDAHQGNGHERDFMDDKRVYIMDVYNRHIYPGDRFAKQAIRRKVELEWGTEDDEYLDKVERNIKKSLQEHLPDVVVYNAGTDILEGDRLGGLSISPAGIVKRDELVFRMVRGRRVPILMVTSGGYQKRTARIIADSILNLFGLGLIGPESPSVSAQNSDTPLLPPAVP
Described as above. It counts as biochemical. The note with it: EMSA, n = 2.

In a further series the target is HDAC1 (Homo sapiens, UniProt Q13547). Kind of series: HDAC inhibition, EMSA at fixed concentration. It counts as biochemical.
Sequence of HDAC1 (Q13547 whole entry): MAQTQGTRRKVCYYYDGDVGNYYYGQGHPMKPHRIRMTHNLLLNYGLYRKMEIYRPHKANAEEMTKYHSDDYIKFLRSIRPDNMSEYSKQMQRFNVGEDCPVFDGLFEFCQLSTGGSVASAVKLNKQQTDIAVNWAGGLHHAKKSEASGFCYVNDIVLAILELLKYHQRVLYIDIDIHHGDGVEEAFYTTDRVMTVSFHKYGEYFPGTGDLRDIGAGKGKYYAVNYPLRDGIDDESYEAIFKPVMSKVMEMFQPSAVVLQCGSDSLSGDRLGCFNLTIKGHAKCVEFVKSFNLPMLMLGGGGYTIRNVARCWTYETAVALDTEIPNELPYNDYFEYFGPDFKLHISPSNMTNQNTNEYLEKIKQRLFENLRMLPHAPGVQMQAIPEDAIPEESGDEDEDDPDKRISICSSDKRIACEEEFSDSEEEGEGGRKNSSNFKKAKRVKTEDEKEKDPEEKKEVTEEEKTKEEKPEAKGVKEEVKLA
The target in the next series is HDAC4 (Homo sapiens, UniProt P56524). Kind of series: HDAC inhibition, EMSA at fixed concentration. It counts as biochemical.
Sequence of HDAC4 (P56524 whole entry): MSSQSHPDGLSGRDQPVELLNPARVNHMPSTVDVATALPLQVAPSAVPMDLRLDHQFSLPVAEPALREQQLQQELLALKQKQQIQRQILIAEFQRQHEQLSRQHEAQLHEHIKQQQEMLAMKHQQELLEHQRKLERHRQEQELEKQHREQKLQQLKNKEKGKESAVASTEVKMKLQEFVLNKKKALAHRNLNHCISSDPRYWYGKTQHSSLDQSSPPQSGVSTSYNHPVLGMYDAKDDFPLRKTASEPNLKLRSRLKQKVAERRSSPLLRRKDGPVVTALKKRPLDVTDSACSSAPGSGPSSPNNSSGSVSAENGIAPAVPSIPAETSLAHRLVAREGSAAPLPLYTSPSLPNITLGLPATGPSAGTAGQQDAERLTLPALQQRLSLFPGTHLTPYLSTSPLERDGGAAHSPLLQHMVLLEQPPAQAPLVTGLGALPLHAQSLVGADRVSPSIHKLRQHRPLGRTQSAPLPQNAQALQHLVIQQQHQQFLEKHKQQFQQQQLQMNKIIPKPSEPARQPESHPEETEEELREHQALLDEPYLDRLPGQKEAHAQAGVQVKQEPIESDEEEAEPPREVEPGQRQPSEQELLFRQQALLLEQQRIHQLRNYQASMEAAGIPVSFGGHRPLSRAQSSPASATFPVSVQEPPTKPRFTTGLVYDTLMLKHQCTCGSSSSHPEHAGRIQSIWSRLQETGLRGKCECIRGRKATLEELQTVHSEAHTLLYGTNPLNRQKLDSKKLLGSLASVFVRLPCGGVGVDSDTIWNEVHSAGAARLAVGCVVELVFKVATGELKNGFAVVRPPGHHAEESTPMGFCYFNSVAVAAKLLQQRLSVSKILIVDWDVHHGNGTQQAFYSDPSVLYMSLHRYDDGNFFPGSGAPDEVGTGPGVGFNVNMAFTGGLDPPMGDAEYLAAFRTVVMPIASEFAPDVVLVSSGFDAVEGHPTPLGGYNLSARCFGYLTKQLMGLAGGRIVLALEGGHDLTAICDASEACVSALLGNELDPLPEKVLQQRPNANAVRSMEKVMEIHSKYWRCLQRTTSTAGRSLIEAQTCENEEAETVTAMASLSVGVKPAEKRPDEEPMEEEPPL
The target of a further series is T4, HDAC10 (Homo sapiens, UniProt Q969S8).
T4 sequence (Q969S8 1-669): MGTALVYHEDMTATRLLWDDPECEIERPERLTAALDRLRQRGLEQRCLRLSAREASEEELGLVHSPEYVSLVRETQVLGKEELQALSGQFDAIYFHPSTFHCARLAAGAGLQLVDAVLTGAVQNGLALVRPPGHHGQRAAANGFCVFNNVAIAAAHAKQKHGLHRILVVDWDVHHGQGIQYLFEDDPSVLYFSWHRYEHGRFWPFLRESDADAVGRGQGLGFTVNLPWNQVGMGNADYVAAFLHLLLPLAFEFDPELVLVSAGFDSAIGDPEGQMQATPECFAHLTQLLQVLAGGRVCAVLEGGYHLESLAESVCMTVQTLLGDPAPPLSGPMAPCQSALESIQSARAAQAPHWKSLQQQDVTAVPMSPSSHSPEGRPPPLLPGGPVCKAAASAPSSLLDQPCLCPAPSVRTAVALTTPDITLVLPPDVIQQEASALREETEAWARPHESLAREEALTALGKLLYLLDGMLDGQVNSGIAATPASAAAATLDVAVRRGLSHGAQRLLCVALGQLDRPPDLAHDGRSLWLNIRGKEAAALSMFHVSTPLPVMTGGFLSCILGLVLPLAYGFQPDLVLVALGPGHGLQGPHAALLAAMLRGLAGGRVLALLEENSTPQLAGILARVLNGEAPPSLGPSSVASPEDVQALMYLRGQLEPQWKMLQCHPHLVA
Nature of the series: HDAC inhibition, EMSA at fixed concentration. It counts as biochemical.

In the next series the test system is MV4–11 AML cells. Kind of series: Cytotoxicity assay. It counts as cell-based. The note with it: Homo sapiens, MV4-11, read-out: IC50 (cytotoxicity).
For series [1], the system named is MOLM-13 acute myeloid leukemia (AML) cells. Kind of series: Cytotoxicity assay. The note with it: MOLM-13 AML cells. It counts as cell-based, human.
The test system of series [2] is chronic myelogenous leukemia K562 cells. Nature of the series: Cytotoxicity assay. It counts as cell-based, human.
Series [3] relates to MRC-9 lung cells (noncancerous). Kind of series: Cytotoxicity assay. It counts as cell-based, human.
Series [4] relates to brain tumor stem cell (BTSC) glioblastoma lines. Kind of series: Cytotoxicity assay in GBM BTSCs. It counts as cell-based, human. Particulars: multiple BTSC glioblastoma lines.
Series [5] deals with D425 primary medulloblastoma (MDB) cells. Nature of the series: Cytotoxicity assay in medulloblastoma cells. It counts as cell-based, human.
The subject of another series is D458 recurrent MDB cells. Nature of the series: Cytotoxicity assay in medulloblastoma cells. It counts as cell-based, human.
The test system of series [6] is PC-3 prostate cancer cells. Kind of series: Cytotoxicity in prostate cancer cells. It counts as cell-based, human.
Series [7] is described as follows: Glutathione stability assay using HPLC. It counts as physicochemical. Particulars: 100-fold excess reduced L-glutathione, HEPES buffer pH 7.4, after 25 h.
The nature of series [8]: Glutathione stability assay using 19F NMR. Particulars: 100-fold excess glutathione, after 16 h. It counts as physicochemical.
The next series has as its system STAT3 (total and pY705). Nature of the series: Western blot, STAT3 signaling in MDA-MB-231 cells. It counts as cell-based, human. The note with it: at 10-fold of the IC50.
The next series deals with STAT5b (total and pY694). Nature of the series: Western blot, STAT5 signaling in MV4–11 cells. It counts as cell-based, human. The note with it: at 10 μM. For orientation: In western blotting, separated proteins are transferred to a membrane and probed.
Series [9] can be described thus: Mouse plasma protein binding assay. It counts as in vitro ADME. Particulars: both, CD-1, mouse.
Series [10] in a line: Caco-2 permeability assay. The note with it: human. It counts as in vitro ADME.
Series [11] in a line: Single-dose pharmacokinetics in NSG mice. It counts as in vivo, mouse.
The nature of series [12]: Serum concentration after 5 days daily dosing in NSG mice. It counts as in vivo, mouse. The note with it: for concentration at 5 h: NSG, mouse, serum, intraperitoneal.
Another series has as its system NSG mice. Nature of the series: Toxicity study. It counts as in vivo.
Series [13] relates to equivalent immunodeficient mice. Nature of the series: Orthotopic tumor model in immunodeficient mice, survival.

Sequence of HDAC3 (O15379 whole entry): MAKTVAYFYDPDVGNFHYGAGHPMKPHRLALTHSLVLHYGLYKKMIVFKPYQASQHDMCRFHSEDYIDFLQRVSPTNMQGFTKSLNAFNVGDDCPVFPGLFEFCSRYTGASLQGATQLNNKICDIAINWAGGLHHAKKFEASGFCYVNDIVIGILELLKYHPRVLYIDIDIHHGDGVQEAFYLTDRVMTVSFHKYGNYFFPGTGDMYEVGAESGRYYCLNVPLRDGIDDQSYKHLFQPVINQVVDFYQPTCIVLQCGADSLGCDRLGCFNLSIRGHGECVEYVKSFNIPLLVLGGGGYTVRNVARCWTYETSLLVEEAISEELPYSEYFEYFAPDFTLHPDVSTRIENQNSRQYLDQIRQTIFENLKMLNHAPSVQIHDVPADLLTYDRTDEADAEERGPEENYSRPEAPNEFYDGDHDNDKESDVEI
Sequence of HDAC3 (Q9Y618 395-489 partner limits assumed): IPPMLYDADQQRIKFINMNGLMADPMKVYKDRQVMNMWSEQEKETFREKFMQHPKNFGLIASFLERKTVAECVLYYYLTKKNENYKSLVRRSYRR

As for `CN(O)C(=O)c1ccc(N(Cc2ccc(C(C)(C)C)cc2)C(=O)CN(Cc2c(F)c(F)c(F)c(F)c2F)S(=O)(=O)c2ccc(F)cc2)cc1` [compound 60, 4-(N-(4-(tert-Butyl)benzyl)-2-((4-fluoro-N-((perfluorophenyl)-methyl)phenyl)sulfonamido)acetamido)-N-hydroxy-N-methylbenzamide], the “% inhibition HDAC3” value at HDAC3 (at 10 μM) turned out to be 0%. Further, the “% inhibition HDAC6” value on HDAC6 (at 10 μM) stood at 12%. Also, the “% inhibition HDAC8” value at HDAC8 (at 10 μM, EMSA, n = 2) is recorded as 0%. Moreover, the “% inhibition HDAC11” value at HDAC11 (at 10 μM) stood at 64%. Further, the “% inhibition HDAC1” value at HDAC1 (at 10 μM, n = 2) was determined as 0%. Besides, on HDAC4 (at 10 μM, n = 2), the “% inhibition HDAC4” value is given as 0%. The “% inhibition HDAC10” value on HDAC10 (at 10 μM, n = 2) is recorded as 0%.
Regarding `CC(C)(C)c1ccc(CN(C(=O)CN(Cc2c(F)c(F)c(F)c(F)c2F)S(=O)(=O)c2ccc(F)cc2)c2ccc(C(=O)NO)cc2)cc1` [AES-135, 4-(N-(4-(tert-Butyl)benzyl)-2-((4-fluoro-N-((perfluorophenyl)-methyl)phenyl)sulfonamido)acetamido)-N-hydroxybenzamide], the inhibition at 10 µM is greater than 90% on HDAC3 (read-out: % inhibition HDAC3, at 10 μM); greater than 90% at HDAC6 (read-out: % inhibition HDAC6, at 10 μM); greater than 90% at HDAC8 (read-out: % inhibition HDAC8, at 10 μM, EMSA, n = 2); greater than 90% at HDAC11 (read-out: % inhibition HDAC11, at 10 μM); no less than 70% on HDAC1 (read-out: % inhibition HDAC1, at 10 μM, n = 2); less than 20% on HDAC4 (read-out: % inhibition HDAC4, at 10 μM, n = 2). The inhibition at 10 µM at HDAC10 (read-out: % inhibition HDAC10, at 10 μM, n = 2) was no less than 70%. In addition, the IC50 on HDAC8 was determined as 1.1 µM; with MV4–11 AML cells, 1.88 ± 0.89 µM. Also, the cytotoxic potency result in series [1] is given as “low μM potency”; in series [4], “low μM potency”; in [5], “nM activity”; in the series on D458 recurrent MDB cells, “nM activity”; in series [6], “low μM potency”. Besides, in series [2], the sensitivity to cytotoxicity entry is recorded as “resistant”. In addition, the “toxicity in noncancerous cells” value in series [3] was “minimal toxicity”. In series [7], the “stability to glutathione (HPLC)” value is “No discernible reaction was observed”. For the same compound, the “stability to glutathione (19F NMR)” value in series [8] was “no displacement of fluoride was observed”. Besides, the “effect on total STAT3 and pY705 STAT3 (Western blot)” value in the series on STAT3 (total and pY705) was “neither total STAT3 nor pY705 STAT3 was significantly reduced”. Also, the “effect on total STAT5b and pY694 STAT5b (Western blot)” value with STAT5b (total and pY694) was “failed to suppress total STAT5b or pY694 STAT5b”. The same compound showed a recovery at 6 h in series [9] (mouse plasma) of 16 to 20%. The same compound had a fraction unbound at 6 h in [9] (plasma) of 0.004. The Papp A→B at 5 µM in series [10] stood at 0.27 ×10⁻⁶ cm/s. Besides, the efflux ratio at 5 µM in series [10] worked out at 3.83. The “duration of micromolar (μM) concentrations” value in series [11] (IP injection) was greater than 10 h. In addition, in series [11] (single 20 mg/kg IP, assuming bioavailability to be 100%), the clearance rate is on record as 0.004 L/h. Moreover, in [12] (40 vs 10 mg/kg), the “increase in blood concentration from quadrupling the dose” value is listed as roughly 5.7 fold. The concentration at 5 h in series [12] (10 mg/kg) worked out at 323 ng/mL; in [12] (40 mg/kg) it was 1830 ng/mL. In the series on NSG mice (60 mg/kg IP daily for 4–5 days, n = 6), the “toxicity assessed via weight loss” value is on record as “no significant weight loss”. Moreover, the “toxicity based on percentage weight loss compared to vehicle control” value with NSG mice (10 and 40 mg/kg IP once a day for 5 days) is “No visible toxicity”. Besides, the survival advantage result in series [13] is given as “no obvious survival advantage”.
